Counter-ions that a name gives are not always drawn.
System: guinea-pig teania coli
Assay: Calcium-antagonistic activity: inhibition of CaCl2-evoked contraction of isolated guinea-pig teania coli
Assay type: tissue-based
Settings: Cavia porcellus, 5 min; 50% inhibition of Ca^++-evoked contraction; CaCl2 3×10^-4 M; 5 minutes exposure; 32° C.
Method: The action potentials on the smooth muscles of uterus, teania coli and portal vein are dependent on calcium ion, and therefor these smooth muscle preparations are useful for screening of calcium antagonists. We measured the calcium-antagonistic activity of the compounds by the method using guinea-pig teania coli preparation.
Isolated guinea-pig teania coli was suspended in a 20 ml organ bath with Krebs solution at 32° C. and bubbled with 5% carbon dioxide in oxygen. After equilibration, the muscle was washed with Ca^++ -free Krebs solution, and when the muscle had relaxed to basal level, it was suspended in Ca^++ -free-high-K Krebs solution.
The muscle was exposed to test compounds for 5 minutes before addition of CaCl2, and the contraction evoked by CaCl2 (3×10^-4 M) was recorded isotonically. The calcium-antagonistic activity was represented by the concentration of test compound which elicited 50% inhibition of Ca^++ -evoked contraction (IC50).

SMILES | IC50
COc1ccc(OCCCCCN(C)C2CCCCC2)c(C2Sc3ccccc3NC2=O)c1 (stereo not shown) [Compound 58] | 2600 nM
COc1ccc(OCCCN(C)CCc2ccc(OC)c(OC)c2)c(C2Sc3ccccc3NC2=O)c1 (stereo not shown) [Compound 59] | 2000 nM
COc1ccc(OCCCN(C)C)c(C2Sc3ccccc3N(C)C2=O)c1 (stereo not shown) [Compound 61] | 2500 nM
COc1ccc(OCCCN(C)C2CCCCC2)c(C2Sc3ccccc3N(C)C2=O)c1 (stereo not shown) [Compound 62] | 1600 nM
COc1ccc(OCCCCCN(C)C2CCCCC2)c(C2Sc3ccccc3N(C)C2=O)c1 (stereo not shown) [Compound 64] | 3000 nM
COc1ccc(OCCCCN2CCC(C(=O)c3ccccc3)CC2)c(C2Sc3ccccc3N(C)C2=O)c1 (stereo not shown) [Compound 65] | 1800 nM
CN(CCCOc1ccc(C2Sc3ccccc3NC2=O)cc1)C1CCCCC1 (stereo not shown) [Compound 68] | 1900 nM
COc1ccc(CCN2CCN(CCCOc3ccc(C4Sc5ccccc5NC4=O)cc3)CC2)cc1OC (stereo not shown) [Compound 71] | 2000 nM
CN(C)CCCOc1ccc(C2Sc3ccccc3N(C)C2=O)cc1 (stereo not shown) [Compound 72, 3,4-Dihydro-2-[4-(3-dimethylaminopropoxy)phenyl]-4-methyl-3-oxo-2H-1,4-benzothiazine] | 2600 nM
CN1C(=O)C(c2ccc(OCCCN(C)C3CCCCC3)cc2)Sc2ccccc21 (stereo not shown) [Compound 73] | 3400 nM
COc1ccc(OCCCCN2CCN(CCc3cc(OC)c(OC)c(OC)c3)CC2)c(C2Sc3ccccc3NC2=O)c1 (stereo not shown) [Compound 75] | 3000 nM
COc1ccc(OCCCN2CCN(CCc3cc(OC)c(OC)c(OC)c3)CC2)c(C2Sc3ccccc3N(C)C2=O)c1 (stereo not shown) [Compound 77] | 1600 nM
COc1ccc(OCCCCN2CCN(CC(=O)c3ccccc3)CC2)c(C2Sc3ccccc3N(C)C2=O)c1 (stereo not shown) [Compound 79] | 3900 nM
COc1ccc(OCC(O)CN2CCN(CC(=O)c3ccccc3)CC2)c(C2Sc3ccccc3N(C)C2=O)c1 (stereo not shown) [Compound 107, 3,4-Dihydro-2-[5-methoxy-2-[2-hydroxy-3-(4-phenacylpiperazino)propoxy]phenyl]-4-methyl-3-oxo-2H-1,4-benzothiazine dimaleate] | 3800 nM

System: blood platelet (rabbit platelet rich plasma)
Assay: Anti-aggregatory activity: inhibition of collagen- or ADP-induced platelet aggregation in vitro (PRP)
Assay type: cell-based
Settings: Oryctolagus cuniculus, 50% inhibition of control response, collagen (3 μg/ml) or ADP (3 μM), table does not say which, 37° C.
Method: Blood was obtained from an anesthetized rabbit using 0.1 volumes of 3.8% sodium citrate as anticoagulant. Platelet rich plasma(PRP) was isolated by centrifugation at 650 rpm for 10 minutes at room temperature. After preincubation of PRP (0.25 ml) with various concentrations of test compounds (14 μl) for 1 minute at 37° C., collagen (3 μg/ml:final concentration) or ADP (3 μM:final concentration) was added to induce aggregation and the aggregation profiles were monitored with RIKADENKI six-channel aggregometer. The control experiment contained saline instead of test compound.
The anti-aggregatory activity was represented by the concentration of test compound which elicited 50% inhibition of control response.

SMILES | IC50
COc1ccc(OCCCN(C)C)c(C2Sc3ccccc3NC2=O)c1 (stereo not shown) [Compound 55, 3,4-dihydro-2-[2-(3-dimethylaminopropoxy)-5-methoxyphenyl]-3-oxo-2H-1,4-benzothiazine] | 3.2 µM
COc1ccc(OCCCCN(C)C2CCCCC2)c(C2Sc3ccccc3NC2=O)c1 (stereo not shown) [Compound 57] | 3.2 µM
COc1ccc(OCCCCN(C)C2CCCCC2)c(C2Sc3ccccc3N(C)C2=O)c1 (stereo not shown) [Compound 63, 3,4-Dihydro-2-[5-methoxy-2-[4-(N-methylcyclohexylamino)butoxy]phenyl]-4-methyl-3-oxo-2H-1,4-benzothiazine oxalate] | 3.2 µM
CN(C)CCCOc1ccc(C2Sc3ccccc3NC2=O)cc1 (stereo not shown) [Compound 67] | 1.6 µM
COc1ccc(OCCCN2CCN(CC(=O)c3ccccc3)CC2)c(C2Sc3ccccc3NC2=O)c1 (stereo not shown) [Compound 76] | 3.2 µM
COc1ccc(OCCCCN2CCN(CCc3cc(OC)c(OC)c(OC)c3)CC2)c(C2Sc3ccccc3N(C)C2=O)c1 (stereo not shown) [Compound 78] | 3.5 µM
COc1ccc(OCCCN(C)C)c(C2Sc3ccccc3N(CCCN(C)C)C2=O)c1 (stereo not shown) [Compound 82, 3,4-Dihydro-2-[2-(3-dimethylaminopropoxy)-5-methoxyphenyl]-4-(3-dimethylaminopropyl)-3-oxo-2H-1,4-benzothiazine dioxalate] | 3.2 µM
COc1ccc(OCC(O)CNC(C)(C)C)c(C2Sc3ccccc3NC2=O)c1 (stereo not shown) [Compound 105, 2-[2-(3-tert-Butylamino-2-hydroxypropoxy)-5-methoxyphenyl]-3,4-dihydro-3-oxo-2H-1,4-benzothiazine] | 1 µM
COc1ccc(OCC(O)CNC(C)(C)C)c(C2Sc3ccccc3N(C)C2=O)c1 (stereo not shown) [Compound 106] | 1.3 µM

System: not listed separately
Assay: Acute toxicity test, oral
Settings: mouse, in vivo, orally, male ddy-SLC mice
Method: Male ddy-SLC strain mice (4 weeks of age, weighing 19-21 g) were placed in a breeding room of constant temperature and huminity (23±1° C., 55±5%) and fed freely pellet diet and water ad. libitum for a week. Mice showing normal growth were selected for the test. (method of administration)
Test compounds are suspended in 0.5% tragacanth suspention and administered orally in a dose of 0.5 ml/20 g body weight.

SMILES | LD50
CN1C(=O)C(c2ccc(OCCCN(C)C3CCCCC3)cc2)Sc2ccccc21 (stereo not shown) [Compound 73] | 500 to 1000 mg/kg
COc1ccc(OCCCN2CCN(CCc3cc(OC)c(OC)c(OC)c3)CC2)c(C2Sc3ccccc3N(C)C2=O)c1 (stereo not shown) [Compound 77] | > 1280 mg/kg

Source: patent publication US4584300A, “Platelet anti-aggregative- and calcium antagonistic -1,4-benzothiazin-3-one derivatives, compositions, and methods of use therefor” (Santen Pharmaceutical Co., Ltd., priority 1983, dated 1986)
